pIC50: −log10 of the molar value.

The test system of this test is SJSA, an osteocarcinoma cell line. The experiment in a line: antiproliferative activity assay (tetrazolium dye, MTT) in SJSA cells. The conditions noted are these: cell-based MTT assay, inhibition of cell proliferation, read-out: TT IC50. As for the experimental part: The pharmacological properties of the compounds of this invention may be confirmed by a number of pharmacological assays. The exemplified antiproliferative activity assay which follows has been carried out with the compounds according to the invention.
Cell proliferation was evaluated by the tetrazolium dye assay according to the procedure of Denizot and Lang (Denizot, F. and Lang, R. (1986) Rapid colorimetric assay for cell growth and survival. Modification to the terrazolium dye procedure giving improved sensitivity and reliability. J. Immunol. Methods 89, 271-277). The cell line used was SJSA, an osteocarcinoma cell line obtained from the American Type Cell Culture Collection (ATCC; Rockville, Md.). The cells were grown in PRMI with 10% FBS (Fetal Bovine Serum, Invitrogen).
Cells were plated at the appropriate seeding density to give logarithmic growth over the course of the assay in a 96-well tissue culture plate. Plates were incubated overnight at 37° C. in a humidified incubator with 5% CO2. The next day, test compounds were serially diluted 1:3 in the appropriate medium containing 3% DMSO. One-tenth final volume of each dilution was added […] to the plates containing cells. The same volume of 3% DMSO in medium was added to a row of control wells. Thus, the final concentration of DMSO in all wells was 0.3%. The plates were returned to the incubator, and at set time points (determined by their growth curves) plates were analyzed as follows: 3-(4,5-dimethylthiazole-2-yl)-2,5-diphenyl-2H-tetrazolium bromide (thiazolyl blue; MTT; Sigma) was added to each well to yield a final concentration of 1 mg/ml. Plates were returned to the incubator for 2.5 hours. The MTT-containing medium was removed and the resulting formazan metabolite was solubilized in 100% ethanol with shaking for 15 minutes at room temperature. Absorbances were read in a microtiter plate reader at a wavelength of 570 nm with a 650 nm reference. Percent inhibition (% INH) was calculated by subtracting the blank from all wells, then subtracting the ratio of the average absorbance of each triplicate (SAVE) by the average of the controls (CAVE) from 1.00. The final product was then multiplied by 100 (% INH=(1.00−SAVE/CAVE)×100). The concentration at which 50% inhibition (IC50) of cell proliferation is obtained was determined from the linear regression of a plot of the logarithm of the concentration versus percent inhibition.
For orientation: Tetrazolium assays rely on reduction of a dye to a coloured formazan, in cell work by metabolically active cells.

What is called pIC50 is −log10 of the IC50, conventionally taken in molar units. In the case of `CN1[C@@H](CC(C)(C)C)[C@](C#N)(c2ccc(Cl)cc2F)[C@@H](c2cccc(Cl)c2F)[C@@H]1C(=O)Nc1ccc(C(=O)O)cc1` [Example 25, 4-{[(2R,3S,4R,5S)-3-(3-chloro-2-fluoro-phenyl)-4-(4-chloro-2-fluoro-phenyl)-4-cyano-5-(2,2-dimethyl-propyl)-1-methyl-pyrrolidine-2-carbonyl]-amino}-benzoic acid], the pIC50 is 6.41. As for `CNC(=O)c1ccc(NC(=O)[C@H]2[C@H](c3cccc(Cl)c3F)[C@@](C#N)(c3ccc(Cl)cc3F)[C@H](CC(C)(C)C)N2C)c(OC)c1` (racemic) [Example 51, rac-(2R,3S,4R,5S)-3-(3-chloro-2-fluoro-phenyl)-4-(4-chloro-2-fluoro-phenyl)-4-cyano-5-(2,2-dimethyl-propyl)-1-methyl-pyrrolidine-2-carboxylic acid (2-methoxy-4-methylcarbamoyl-phenyl)-amide], the figure is 6.34; as for `CCN1[C@@H](CC(C)(C)C)[C@](C#N)(c2ccc(Cl)cc2F)[C@@H](c2cccc(Cl)c2F)[C@@H]1C(=O)Nc1ccc(C(=O)O)cc1` (racemic) [Example 33, 4-{[(2R,3S,4R,5S)-3-(3-chloro-2-fluoro-phenyl)-4-(4-chloro-2-fluoro-phenyl)-4-cyano-5-(2,2-dimethyl-propyl)-1-ethyl-pyrrolidine-2-carbonyl]-amino}benzoic acid], 5.88. For the molecule `COc1cc(C(=O)O)ccc1NC(=O)[C@H]1[C@H](c2cccc(Cl)c2F)[C@@](C#N)(c2ccc(Cl)cc2F)[C@H](CC(C)(C)C)N1C` [Example 31, 4-{[(2R,3S,4R,5S)-3-(3-chloro-2-fluoro-phenyl)-4-(4-chloro-2-fluoro-phenyl)-4-cyano-5-(2,2-dimethyl-propyl)-1-methyl-pyrrolidine-2-carbonyl]-amino}-3-methoxy-benzoic acid], the pIC50 was 6.72. Next, `C=CCCCN1[C@@H](CC(C)(C)C)[C@](C#N)(c2ccc(Cl)cc2F)[C@@H](c2cccc(Cl)c2F)[C@@H]1C(=O)Nc1ccc(C(=O)O)c(OC)c1` (racemic) [Example 47, 4-{[(2R,3S,4R,5S)-3-(3-chloro-2-fluoro-phenyl)-4-(4-chloro-2-fluoro-phenyl)-4-cyano-5-(2,2-dimethyl-propyl)-1-pent-4-enyl-pyrrolidine-2-carbonyl]-amino}-2-methoxy-benzoic acid]: 6.21. As for `CCN1[C@@H](CC(C)(C)C)[C@](C#N)(c2ccc(Cl)cc2F)[C@@H](c2cccc(Cl)c2F)[C@@H]1C(=O)Nc1ccc(C(=O)O)cc1OC` (racemic) [Example 44, rac-4-{[(2R,3S,4R,5S)-3-(3-chloro-2-fluoro-phenyl)-4-(4-chloro-2-fluoro-phenyl)-4-cyano-5-(2,2-dimethyl-propyl)-1-ethyl-pyrrolidine-2-carbonyl]-amino}-3-methoxy-benzoic acid], the figure is 6.66; as for `COc1cc(C(=O)O)ccc1NC(=O)[C@H]1[C@H](c2cccc(Cl)c2F)[C@@](C#N)(c2ccc(Cl)cc2F)[C@H](CC(C)(C)C)N1CCCCCO` (racemic) [Example 56, rac-4-{[(2R,3S,4R,5S)-3-(3-chloro-2-fluoro-phenyl)-4-(4-chloro-2-fluoro-phenyl)-4-cyano-5-(2,2-dimethyl-propyl)-1-(5-hydroxy-pentyl)-pyrrolidine-2-carbonyl]-amino}-3-methoxy-benzoic acid], 7.52; as for `COc1cc(NC(=O)[C@H]2[C@H](c3cccc(Cl)c3F)[C@@](C#N)(c3ccc(Cl)cc3F)[C@H](CC(C)(C)C)N2CC2CC2)ccc1C(=O)O` [Example 38, 4-{[(2R,3S,4R,5S)-3-(3-chloro-2-fluoro-phenyl)-4-(4-chloro-2-fluoro-phenyl)-4-cyano-1-cyclopropylmethyl-5-(2,2-dimethyl-propyl)-pyrrolidine-2-carbonyl]-amino}-2-methoxy-benzoic acid], 7.05. Next, `CCN1[C@@H](CC(C)(C)C)[C@](C#N)(c2ccc(Cl)cc2F)[C@@H](c2cccc(Cl)c2F)[C@@H]1C(=O)Nc1ccc(C(=O)O)c(OC)c1` (racemic) [Example 41, 4-{[(2R,3S,4R,5S)-3-(3-chloro-2-fluoro-phenyl)-4-(4-chloro-2-fluoro-phenyl)-4-cyano-5-(2,2-dimethyl-propyl)-1-ethyl-pyrrolidine-2-carbonyl]-amino}-2-methoxy-benzoic acid]: 5.91. As to `CCOC(=O)C1CC1CN1[C@@H](CC(C)(C)C)[C@](C#N)(c2ccc(Cl)cc2F)[C@@H](c2cccc(Cl)c2F)[C@@H]1C(=O)Nc1ccc(C(=O)OC)cc1OC` (stereo partly drawn) [Example 61, 4-{[(2R,3S,4R,5S)-3-(3-chloro-2-fluoro-phenyl)-4-(4-chloro-2-fluoro-phenyl)-4-cyano-5-(2,2-dimethyl-propyl)-1-(2-ethoxycarbonyl-cyclopropylmethyl)-pyrrolidine-2-carbonyl]-amino}-3-methoxy-benzoic acid methyl ester], the pIC50 was 6.17. Next, `CCCCN1[C@@H](CC(C)(C)C)[C@](C#N)(c2ccc(Cl)cc2F)[C@@H](c2cccc(Cl)c2F)[C@@H]1C(=O)Nc1ccc(C(=O)O)c(OC)c1` (racemic) [Example 43, 4-{[(2R,3S,4R,5S)-1-butyl-3-(3-chloro-2-fluoro-phenyl)-4-(4-chloro-2-fluoro-phenyl)-4-cyano-5-(2,2-dimethyl-propyl)-pyrrolidine-2-carbonyl]-amino}-2-methoxy-benzoic acid]: 5.94; `CCCN1[C@@H](CC(C)(C)C)[C@](C#N)(c2ccc(Cl)cc2F)[C@@H](c2cccc(Cl)c2F)[C@@H]1C(=O)Nc1ccc(C(=O)O)c(OC)c1` (racemic) [Example 49, 4-{[(2R,3S,4R,5S)-3-(3-chloro-2-fluoro-phenyl)-4-(4-chloro-2-fluoro-phenyl)-4-cyano-5-(2,2-dimethyl-propyl)-1-propyl-pyrrolidine-2-carbonyl]-amino}-2-methoxy-benzoic acid]: 5.83. As for `COc1cc(C(=O)O)ccc1NC(=O)[C@H]1[C@H](c2cccc(Cl)c2F)[C@@](C#N)(c2ccc(Cl)cc2F)[C@H](CC(C)(C)C)N1CC1CC1` (racemic) [Example 40, rac-4-{[(2R,3S,4R,5S)-3-(3-chloro-2-fluoro-phenyl)-4-(4-chloro-2-fluoro-phenyl)-4-cyano-1-cyclopropylmethyl-5-(2,2-dimethyl-propyl)-pyrrolidine-2-carbonyl]-amino}-3-methoxy-benzoic acid], the figure is 6.89; as for `CN1[C@@H](CC(C)(C)C)[C@](C#N)(c2ccc(Cl)cc2F)[C@@H](c2cccc(Cl)c2F)[C@@H]1C(=O)Nc1ccc(C(C)(C)C(=O)O)cc1` [Example 27, 2-(4-{[(2R,3S,4R,5S)-3-(3-chloro-2-fluoro-phenyl)-4-(4-chloro-2-fluoro-phenyl)-4-cyano-5-(2,2-dimethyl-propyl)-1-methyl-pyrrolidine-2-carbonyl]amino}-phenyl)-2-methyl-propionic acid], 5.71; as for `COC(=O)c1nc(NC(=O)[C@H]2[C@H](c3cccc(Cl)c3F)[C@@](C#N)(c3ccc(Cl)cc3F)[C@H](CC(C)(C)C)N2C)n[nH]1` [Example 54, 5-{[(2R,3S,4R,5S)-3-(3-chloro-2-fluoro-phenyl)-4-(4-chloro-2-fluoro-phenyl)-4-cyano-5-(2,2-dimethyl-propyl)-1-methyl-pyrrolidine-2-carbonyl]-amino}-2H-[1,2,4]triazole-3-carboxylic acid methyl ester], 6.12. Next, `C#CCN1[C@@H](CC(C)(C)C)[C@](C#N)(c2ccc(Cl)cc2F)[C@@H](c2cccc(Cl)c2F)[C@@H]1C(=O)Nc1ccc(C(=O)O)cc1OC` [Example 62, 4-{[(2R,3S,4R,5S)-3-(3-chloro-2-fluoro-phenyl)-4-(4-chloro-2-fluoro-phenyl)-4-cyano-5-(2,2-dimethyl-propyl)-1-prop-2-ynyl-pyrrolidine-2-carbonyl]-amino}-3-methoxy-benzoic acid]: 7.10.

For the molecule `CC(C)(C)C[C@@H]1N(CC2CC2)[C@@H](C(=O)Nc2ccc(C(=O)O)cc2)[C@H](c2cccc(Cl)c2F)[C@@]1(C#N)c1ccc(Cl)cc1F` (racemic) [Example 34, rac-4-{[(2R,3S,4R,5S)-3-(3-chloro-2-fluoro-phenyl)-4-(4-chloro-2-fluoro-phenyl)-4-cyano-1-cyclopropylmethyl-5-(2,2-dimethyl-propyl)-pyrrolidine-2-carbonyl]-amino}-benzoic acid], the pIC50 was 6.52. In the case of `CC(C)(C)C[C@@H]1N(CCC2CCCCC2)[C@@H](C(=O)Nc2ccc(C(=O)O)cc2)[C@H](c2cccc(Cl)c2F)[C@@]1(C#N)c1ccc(Cl)cc1F` (racemic) [Example 37, rac-4-{[(2R,3S,4R,5S)-3-(3-chloro-2-fluoro-phenyl)-4-(4-chloro-2-fluoro-phenyl)-4-cyano-1-(2-cyclohexyl-ethyl)-5-(2,2-dimethyl-propyl)-pyrrolidine-2-carbonyl]-amino}-benzoic acid], the pIC50 was 6.96.

These data come from patent US20120010235A1, “N-SUBSTITUTED PYRROLIDINES” (priority 2010, published 2012).
